Results from US20220323402A1, “TREATMENT, AMELIORATION OR PREVENTION OF A VIRAL INFECTION” (priority 2019, published 2022).

Experiments:
AHR [1] = experiment: AHR modulation in NPCs, qPCR of AHR, CYP1A1, IDO1 and TDO2; assay type: cell-based, human; conditions: at the concentrations tested; NPCs 24 h; FIGS. 10A-10D
Experimental: FIGS. 10A-10D: AHR modulation in NPCs. NPCs were treated with I3S or a combination of I3S and CH223191. 24 h after treatment, NPCs were harvested for RNA extraction followed by qPCR analysis of AHR (FIG. 10A), CYP1A1 (FIG. 10B), IDO1 (FIG. 100) and TDO2 (FIG. 10D). Data represent the mean+s.e.m. from three independent experiments. P values were determined by Student's t-test.
RNA was extracted using the RNAeasy kit (Qiagen). cDNA was synthesized using the High-Capacity cDNA Reverse Transcription kit (Applied Biosystems) and qPCR was performed using TaqMan Fast Advanced Master Mix (Applied Biosystems). Gene expression was normalized to GAPDH. Primers and probes (Applied Biosystems) were: GAPDH Hs02786624_g1, IFNB1 Hs01077958_s1, AHR Hs00169233_m1, PML Hs00971694_m1, CYP1A1 Hs01054796_g1, IFITM1 Hs00705137_s1, CYP1B1 Hs02382916_s1, CXCL10 Hs00171042_m1, IDO1 Hs00984148_m1, IDO2 Hs01589373_m1, IFITM Hs00705137_s1, TDO Hs00194611_m1. Primers and probes for the specific detection of Zika virus RNA were utilized as previously described^81, 82. For viral load determination in vivo, brains and spleens from pups were macerated on trizol (Invitrogen) for RNA extraction. RNA pellets were resuspended in RNase-free water and quantified by spectrophotometry (NanoDrop—Thermo Scientific) and stored at −80° C. […] Quantification was compared with threshold cycle (Ct) value with a ZIKV plasmid standard curve.

AHR [2] = experiment: AHR modulation in A549 cells, qPCR of AHR and CYP1A1; assay type: cell-based; conditions: 24 h; FIG. 61
Experimental: FIGS. 61A and 61B: AHR modulation by small molecules in A549 cells. A549 cells were treated with the indicated concentrations of I3S (FIG. 61A) or CH223191 (FIG. 61B) for 24 h. Then, cells were harvested for RNA extraction and qPCR analysis of AHR and CYP1A1.

Cell cultures = experiment: Cell viability by MTT assay; assay type: cell-based; conditions: at the concentrations tested; FIGS. 9A-9B
Experimental: FIGS. 9A and 9B: Toxicity of I3S and CH223191. Cell viability after treatment for 24 h with different concentrations of I3S (FIG. 9A) and CH223191 (FIG. 9B) evaluated by MTT assay.
Cell cultures grown in 96-well plates were exposed for 48 h to serial two-fold compound dilutions, three wells for each concentration and viability was measured with 3-(4,5-dimethylthiazol-2-yl)-2,5-diphenyl tetrazolium bromide (MTT, Sigma-Aldrich).

[3] = test system: DENV-1, DENV-2, DENV-3, DENV-4; experiment: DENV plaque assay of supernatants of A549 cells; assay type: cell-based, dengue virus; conditions: A549 pretreated 24 h, moi=0.1; FIG. 62
Experimental: FIG. 62: AHR activation boosts DENV replication. A549 cells were pretreated with the indicated concentrations of I3S for 24 h and infected with DENV-2 (moi=0.1). 48 h p.i. supernatants were harvested for plaque assay.
FIGS. 63A-63D: AHR modulation affects DENV replication. Infectious virus particles in the supernatants of A549 cells pre-treated with CH2213191 and infected with DENV-1 (FIG. 63A), DENV-2 (FIG. 63B), DENV-3 (FIG. 63C) or DENV-4 (FIG. 63D) (moi=0.1). At 24 h p.i. supernatants were harvested for plaque assay.

[4] = test system: ZIKV (Puerto Rico strain, PRVABC59); experiment: Flow cytometry quantification of HepG2 cells positive for Flavivirus antigen after ZIKV infection; assay type: cell-based, Zika virus; conditions: HepG2, ZIKV moi=1, 48 h; FIG. 7C
Experimental: FIGS. 7A-7K: AHR signaling boosts ZIKV replication in vitro. Flow cytometry quantification of HepG2 cells positive for Flavivirus antigen. HepG2 cells were pre-treated with different concentrations of I3S, CH223191 or DMSO (vehicle) and infected with ZIKV (moi=1) for 48 h. Plots shown are representative of one experiment. Bar graphs (FIG. 7C) represent the mean+s.e.m. of Flavivirus antigen positive cells from at least three independent experiments. P values were determined by a one-way ANOVA followed by Tukey's post-hoc test.
Stock solutions of I3S and CH223191 were prepared in DMSO, aliquoted and stored according to manufacturer's instructions. For CH223191, cells were pre-treated for 90 minutes and then used for further studies. For I3S, cells were pre-treated overnight.
Cells were fixed and permeabilized using Cytofix/Cytoperm (BD Biosciences). Secondary antibody for flow cytometry was phycoerythrin (PE) goat anti-mouse IgG (BD Biosciences) at a concentration of 1:200. Cells were analyzed on a Guava easyCyte flow cytometer and data was processed using FlowJo software.

ZIKV = experiment: Effect of inhibitors of IFN signaling on ZIKV replication in HepG2 cells, plaque assay; assay type: cell-based, Zika virus; conditions: HepG2 pre-treated 24 h, plaque assay 24 h p.i.; FIG. 22
Experimental: HepG2 cells were pre-treated with DMSO (vehicle), JAK I Inhibitor, TSA, or NaF for 24 h and infected with ZIKV. Data represent the mean+s.e.m. from three independent experiments. P values were determined by a one-way ANOVA followed by Tukey's post-hoc test.
I3S (Indoxyl 3-sulfate, Sigma, used at 50-500 μM as indicated for each experiment), CH223191 (Tocris, used at 2-30 μM), Sodium fluoride (Sigma, 1 mM), Trichostatin A (Sigma, 100 nM), JAK I Inhibitor (Santa Cruz Biotechnology, 1 μM). HP163 was the generous gift of Hercules Pharmaceuticals, BV, (Galileiweg 8, 2333 BD, The Netherlands). CB7993113 has been described previously^80. HP163, is a monoalkylated amide of CB7993113 optimally formulated in a 5% tween, 45% PEG, 50% saline mixture. […] The structural formulas of the compounds used in this study are reproduced below.

O=S(=O)(O)Oc1c[nH]c2ccccc12 [I3S, Indoxyl 3-sulfate]
AHR inhibition / activation (AHR [1]): activation | AHR activation in A549 cells (AHR [2]): activated | cytotoxic effects (Cell cultures): no cytotoxic effects were detected | yield of the four DENV serotypes [3]: increased | percentage of HepG2 cells expressing viral antigen [4]: increased

[F-].[Na+] [NaF, Sodium fluoride]
ZIKV replication in presence of drugs that block IFN-I signaling (ZIKV): increase

CC(/C=C/C(=O)NO)=C\[C@@H](C)C(=O)c1ccc(N(C)C)cc1 [trichostatin A]
ZIKV replication in presence of drugs that block IFN-I signaling (ZIKV): increase

JAK inhibitor I
ZIKV replication in presence of drugs that block IFN-I signaling (ZIKV): increase
